Source: ChEMBL document CHEMBL1130601, “Design and synthesis of 2-cyano-3,12-dioxoolean-1,9-dien-28-oic acid, a novel and highly active inhibitor of nitric oxide production in mouse macrophages” (Bioorg Med Chem Lett, 1998)

Experiments:
Assay type in all cases: functional, organism-based
Mus musculus [1] = species: Mus musculus; assay: Compound was evaluated for inhibitory activity against production of nitric oxide (NO) induced by interferon-gamma (IFN-gamma) in mouse macrophages at a concentration of 0.01-40 uM
Mus musculus [2] = species: Mus musculus; assay: Compound was evaluated for inhibitory activity against production of nitric oxide (NO) induced by interferon-gamma (IFN-gamma) in mouse macrophages at a concentration of 0.01-40 uM; Toxic above 1 uM and not active below 1 uM
Mus musculus [3] = species: Mus musculus; assay: Compound was evaluated for inhibitory activity against production of nitric oxide (NO) induced by interferon-gamma (IFN-gamma) in mouse macrophages at a concentration of 0.1-1 uM
Mus musculus [4] = species: Mus musculus; assay: Compound was evaluated for inhibitory activity against production of nitric oxide (NO) induced by interferon-gamma (IFN-gamma) in mouse macrophages

Structure (SMILES) | IC50 (Mus musculus [1]) | other results
CC1(C)CC[C@]2(C(=O)O)CC[C@]3(C)[C@H](C(=O)C=C4[C@@]5(C)C=CC(=O)C(C)(C)[C@@H]5CC[C@]43C)[C@@H]2C1 | 170 nM | 
CC1(C)CC[C@]2(C(=O)O)CC[C@]3(C)C(=CC[C@@H]4[C@@]5(C)C=C(C=O)C(=O)C(C)(C)[C@@H]5CC[C@]43C)C2C1 (stereo not given in full) |  | IC50 (Mus musculus [2]): > 1000 nM
CC1(C)CC[C@]2(C(=O)O)CC[C@]3(C)C(=CC[C@@H]4[C@@]5(C)C=C(O)C(=O)C(C)(C)[C@@H]5CC[C@]43C)C2C1 (stereo not given in full) | 37000 nM | 
CC1(C)CC[C@]2(C(=O)O)CC[C@]3(C)C(=CC(=O)[C@@H]4[C@@]5(C)C=CC(=O)C(C)(C)[C@@H]5CC[C@]43C)C2C1 (stereo not given in full) | 1400 nM | 
CC1(C)CC[C@]2(C(=O)O)CC[C@]3(C)C(=CC[C@@H]4[C@@]5(C)C=CC(=O)C(C)(C)[C@@H]5CC[C@]43C)C2C1 (stereo not given in full) | 7100 nM | 
COC1=C[C@]2(C)[C@H]3CC=C4C5CC(C)(C)CC[C@]5(C(=O)O)CC[C@@]4(C)[C@]3(C)CC[C@H]2C(C)(C)C1=O (stereo not given in full) | 19000 nM | 
CC1(C)CC[C@]2(C(=O)O)CC[C@]3(C)C(=CC[C@@H]4[C@@]5(C)C=C(C#N)C(=O)C(C)(C)[C@@H]5CC[C@]43C)C2C1 (stereo not given in full) | 600 nM | 
CC1(C)CC[C@]2(C(=O)O)CC[C@]3(C)[C@H](C(=O)C=C4[C@@]5(C)C=C(C#N)C(=O)C(C)(C)[C@@H]5CC[C@]43C)[C@@H]2C1 [BARDOXOLONE] |  | IC50 (Mus musculus [3]): 0.4 nM
C[C@@H]1C[C@H]2[C@@H]3CCC4=CC(=O)C=C[C@]4(C)[C@@]3(F)[C@@H](O)C[C@]2(C)[C@@]1(O)C(=O)CO [DEXAMETHASONE] |  | IC50 (Mus musculus [4]): 0.3 nM
CC1(C)CC[C@]2(C(=O)O)CC[C@]3(C)C(=CC[C@@H]4[C@@]5(C)CC[C@H](O)C(C)(C)[C@@H]5CC[C@]43C)[C@@H]2C1 [OLEANOLIC_ACID] |  | IC50 (Mus musculus [4]): > 40000 nM
